Assay results from patent US20240352072A1, “NOVEL COMPOSITIONS AND METHODS FOR TREATING CORONAVIRUS INFECTIONS” (priority 2021, published 2024).
Like-named read-outs stand apart in the source and are kept apart here. Where no end group is shown, it is not given here. [ ]: non-standard residue; d: D form. The star is where a group is joined. Lys(Me2) = CN(C)CCCC[C@H](N)C(=O)O; Myristyl = CCCCCCCCCCCCCC*

Key:
LSD1 [1] = target: T1, LSD1 (Homo sapiens, UniProt O60341)
ACE2, LSD1 = assay type: cell-based; conditions: Caco-2 cells
[2] = test system: ACE2, SARS-CoV-2 nucleocapsid and Spike proteins; assay type: cell-based
ACE2-importin complex = assay type: binding
ACE2unmod and IMPα1 = target: T2, ACE2unmod and IMPα1 (Homo sapiens, UniProt P52292); assay type: cell-based; set-up: dose or concentration left out as unconfirmed; conditions: H1299 cells
T2 construct: endogenous in cells; host or cells: H1299

SARS-CoV-2 [3] = test system: SARS-CoV-2; set-up: species or system golden Syrian Hamsters; conditions: hamster, in vivo
SARS-CoV-2 [4] = test system: SARS-CoV-2; set-up: species or system golden Syrian Hamsters; conditions: hamster, in vivo; remark: listed apart in the source
SARS-CoV-2 Spike protein [5] = test system: SARS-CoV-2 Spike protein; set-up: species or system golden Syrian Hamsters; conditions: hamster, in vivo
[6] = test system: SARS-Cov-2 induced lung pathology; set-up: species or system golden Syrian Hamsters; conditions: hamster, in vivo
perforin and CD3 = assay type: in vivo, golden Syrian Hamsters; conditions: hamster, IP or IV routes
[7] = Hamster tolerance (animal safety) study; assay type: in vivo, golden Syrian Hamsters; conditions: escalating IP doses
Procedure: Female golden Syrian Hamsters (6-8 weeks) were obtained from Janiver Labs (Le Genest-Saint-Isle, France) and studies conducted by Oncodesign® Biotechnology (Dijon Cedex, France). For tolerance experiments, animals (3 per group) received escalating doses of P604 ACE2 peptide inhibitor or ACE2i peptide via intraperitoneal injection. Doses were escalated daily (day 1: 25 mg/kg, day 2: 50 mg/kg, day 3: 100 mg/kg) and animals monitored prior to culling on day 4. Animal viability, behaviour and rectal temperature were recorded every 2 hours over a 6 hour period post-administration and body weights were measured daily. For P604 ACE2 peptide inhibitor efficacy studies, animals (8 per group) were treated with vehicle (IP, daily day 0, 1 and 2) (Sodium chloride 0.9%, Osalia, Paris, France) or P604 ACE2 peptide inhibitor over a 2-day period via intravenous (IV, 15 mg/kg, day 0 once and day 1 twice, 8 hours apart) or intraperitoneal (IP, 100 mg/kg, daily Day 0, 1, 2) injection. For P604 ACE2 peptide inhibitor efficacy studies, animals were treated with vehicle or P604 ACE2 peptide inhibitor (30 mg/kg, IN, twice daily, Day 0, 1 8 hours apart).

LSD1 [8] = target: T1, LSD1; test: In vitro LSD1 activity assay (demethylation of ACE2 peptide at lysine 31); assay type: biochemical
SARS-CoV-2 [9] = assay type: cell-based
SARS-CoV-2 [10] = assay type: cell-based; remark: listed apart in the source
[11] = target: ACE2 and SARS-CoV-2 Spike (Severe acute respiratory syndrome coronavirus 2, UniProt P0DTC2); assay type: cell-based
SARS-CoV-2 spike protein [12] = target: T3, SARS-CoV-2 spike protein (Severe acute respiratory syndrome coronavirus 2, UniProt P0DTC2); assay type: cell-based
T3 construct: spike protein 51 (Glu14-Ser680) containing a poly-histidine tag at the C-terminus; poly-histidine (C)

**Q.** What does the source list for NNCCc1ccccc1 [phenelzine]?
**A.** effect on ACE2 transcription (LSD1 [1]): minimal effect; expression and co-localization of LSD1 with ACE2 and TMRPSS2 (LSD1 [1]): abrogated

**Q.** With “Myristyl-TGIRDRKKKNKARS-OH (SMILES CCCCCCCCCCCCCCN[C@H](C(=O)NCC(=O)N[C@H](C(=O)N[C@@H](CCCNC(=N)N)C(=O)N[C@@H](CC(=O)O)C(=O)N[C@@H](CCCNC(=N)N)C(=O)N[C@@H](CCCCN)C(=O)N[C@@H](CCCCN)C(=O)N[C@@H](CCCCN)C(=O)N[C@@H](CC(N)=O)C(=O)N[C@@H](CCCCN)C(=O)N[C@@H](C)C(=O)N[C@@H](CCCNC(=N)N)C(=O)N[C@@H](CO)C(=O)O)[C@@H](C)CC)[C@@H](C)O) [P604]” as the compound, how does the “PCC(r) of LSD1 and ACE2 (co-localisation)” value (ACE2, LSD1) read?
**A.** The value was “significantly abrogated”.

**Q.** And the “ACE2 expression on the cell surface” value (ACE2, LSD1; 25 mM/50 mM)?
**A.** The value was “de-stabilizes ACE2 expression on the cell surface”.

**Q.** What about the “cell surface LSD1 expression” value (ACE2, LSD1; 25 mM/50 mM) of the same compound?
**A.** Its value is “reducing cell surface LSD1 expression”.

**Q.** What about the “expression of Spike protein of SARS-CoV-2” value [2] of the same compound?
**A.** Its value is “significantly inhibit and downregulate”.

**Q.** What about the “expression of host ACE2” value [2] of the same compound?
**A.** The value was “significantly inhibit and downregulate”.

**Q.** And the “expression of nucleocapsid protein of SARS-CoV-2” value [2]?
**A.** Its value is “significantly inhibit and downregulate”.

**Q.** What about the “inhibition of the ACE2-importin complex in vitro” value (ACE2-importin complex) of the same compound?
**A.** The value was “directly inhibiting the ACE2-importin complex”.

**Q.** What about the “ACE2unmod-IMP1 interaction (DUOLINK)” value (ACE2unmod and IMPα1) of the same compound?
**A.** Its value is “significantly all but abrogated”.

**Q.** What about the “viral RNA in the lungs” value (SARS-CoV-2 [3]) of the same compound?
**A.** The value was “Significant reductions”.

**Q.** What about the “decrease in viral load normalized to the vehicle group” value (SARS-CoV-2 [3]; ip, 100 mg/kg) of the same compound?
**A.** Its value is 96%.

**Q.** And the “decrease in viral load normalized to the vehicle group” value (SARS-CoV-2 [3]; iv, 15 mg/kg)?
**A.** The value was 88%.

**Q.** What about the “lung infectious titers (TCID50 assay)” value (SARS-CoV-2 [4]) of the same compound?
**A.** Its value is “reduced”.

**Q.** What about the “overall intensity of Spike protein signal in positive cells” value (SARS-CoV-2 Spike protein [5]) of the same compound?
**A.** The value was “significantly reduced”.

**Q.** What about the “population of cells in bronchial lung sections positive for SARS-CoV-2 spike protein” value (SARS-CoV-2 Spike protein [5]) of the same compound?
**A.** The value was “significantly reduced”.

**Q.** And the “changes in the bronchioles or vessels (H&E)” value [6]?
**A.** The value was “minimal changes”.

**Q.** What about the “mean cumulative histopathological scores” value [6] of the same compound?
**A.** The value was “substantially lower than the vehicle group”.

**Q.** And the “CD3+ cells expressing perforin in lung” value (perforin and CD3)?
**A.** Its value is “induce more CD3+ cells to express perforin”.

**Q.** And the “cells positive for perforin in lung” value (perforin and CD3)?
**A.** The value was “significantly induce higher cells positive for perforin”.

**Q.** What about the “toxicity in animal safety studies” value [7] of the same compound?
**A.** Its value is “minimal toxicity”.

**Q.** For “QAKTFLD{Lys(Me2)}FNHEAED (QAKTFLD[Lys(Me2)]FNHEAED) [ACE2me2]”, which “de-methylation at lysine 31 by LSD1” value (LSD1 [8]) is on record?
**A.** Its value is “efficiently de-methylated”.

**Q.** With STIEEQAKTFLDK [ACE2-02] as the compound, how does the “decrease of viral RNA in infected cells” value (SARS-CoV-2 [9]) read?
**A.** Its value is 2 fold.

**Q.** What about the “reduction of infection (qRT-PCR) in cell culture supernatants” value (SARS-CoV-2 [9]) of the same compound?
**A.** The value was 4.6 fold.

**Q.** What about the “reduction in viral load (infectious viral titers, TCID50)” value (SARS-CoV-2 [10]) of the same compound?
**A.** The value was 3.2 fold.

**Q.** What about the “interaction between ACE2 and spike protein (ACE2/spike complexes at the cell surface)” value [11] of the same compound?
**A.** The value was “further disrupted”.

**Q.** What about the “inhibition of Spike protein binding to the cell surface” value (SARS-CoV-2 spike protein [12]) of the same compound?
**A.** Its value is “significantly inhibit”.
